# From the SangsterLogP compilation
# Assay: not given
row,logP,SMILES
1,0.01,CS(=O)(=O)c1cccc(OCC(=O)O)c1
2,1.45,O=C(O)Cc1cccc([N+](=O)[O-])c1
3,0.48,CC(=O)Nc1cccc(OCC(=O)O)c1
4,0.06,CS(=O)(=O)c1cccc(CC(=O)O)c1
5,-0.05,Nc1cccc(CO)c1
6,2.96,CC(C)(C)c1cccc(OCC(=O)O)c1
7,3.41,O=C(O)COc1ccc(C2CCCC2)cc1
8,1.38,COc1cccc(OCC(=O)O)c1
9,1.39,CC(=O)c1cccc(O)c1
10,3.18,O=C(O)COc1cccc(-c2ccccc2)c1
11,2.99,O=C(O)COc1ccc(N=Nc2ccccc2)cc1
12,1.66,O=C(O)c1cccc(C(=O)O)c1
13,2.69,CC(C)c1ccc(OCC(=O)O)cc1
14,2.37,O=C(O)Cc1cccc(Br)c1
15,2.86,O=C(O)c1ccc(Br)cc1
16,2.59,CC(C)c1cccc(OCC(=O)O)c1
17,1.6,Cc1cccc(CO)c1
18,2.19,O=C(O)COc1ccccc1I
19,2.64,O=[N+]([O-])c1cccc(Br)c1
20,2.19,O=C(O)COc1cccc(S(=O)(=O)C(F)(F)F)c1
21,2.67,O=C(O)COc1ccc2c(c1)CCCC2
22,2.4,CCc1cccc(O)c1
23,2.86,O=C(O)COc1cccc(SC(F)(F)F)c1
24,1.3,Nc1cccc(F)c1
25,1.94,OCc1cccc(Cl)c1
26,1.42,CC(=O)c1cccc([N+](=O)[O-])c1
27,2.33,O=C(O)COc1ccc2c(c1)CCC2

row,logP,SMILES
1,1.9,CSc1cccc(OCC(=O)O)c1
2,1.23,COc1ccc(OCC(=O)O)cc1
3,3.79,O=C(O)COc1ccc(C2CCCCC2)cc1
4,1.7,N#Cc1cccc(O)c1
5,3.18,CCCCc1cccc(OCC(=O)O)c1
6,1.83,COC(=O)c1cccc(C(=O)O)c1
7,1.48,O=C(O)COc1cccc(F)c1
8,1.11,O=C(O)COc1cccc(C(=O)O)c1
9,2.44,O=C(O)COc1cccc(I)c1
10,2.93,Oc1cccc(I)c1
11,2.48,O=C(O)COc1cccc(OC(F)(F)F)c1
12,1.25,CC(=O)c1ccccc1OCC(=O)O
13,1.56,CN(C)c1cccc(O)c1
14,3.12,CCC(C)c1ccc(OCC(=O)O)cc1 (stereo not given)
15,1.49,CC(=O)Oc1ccccc1
16,1.37,O=C(O)COc1cccc([N+](=O)[O-])c1
17,0.85,O=C(O)Cc1cccc(O)c1
18,2.71,CCCc1cccc(OCC(=O)O)c1
19,1.21,O=[N+]([O-])c1cccc(CO)c1
20,2.78,O=C(O)COc1cccc(S(F)(F)(F)(F)F)c1
21,0.76,O=C(O)COc1cccc(O)c1
22,2.31,O=C(O)Cc1ccc(Br)cc1
23,0.26,NC(=O)Nc1cccc(OCC(=O)O)c1
24,1.48,O=C(O)COc1ccc([N+](=O)[O-])cc1
25,1.99,O=C(O)COc1cccc(NC(=O)c2ccccc2)c1
26,2.95,O=C(O)c1cccc(C(F)(F)F)c1
27,1.71,Oc1ccccc1F

row,SMILES,logP
1,O=C(O)Cc1cccc(Cl)c1,2.09
2,N#Cc1cccc(C(=O)O)c1,1.48
3,O=C(O)COc1ccc(O)cc1,0.65
4,COc1ccc(CO)cc1,1.1
5,Oc1ccccc1Br,2.35
6,O=C(O)COc1cccc(Cl)c1,2.03

# Assay: method code SF-C, from DOI: 10.1021/ja01077a028
row,logP,SMILES
1,1.65,O=C(O)Cc1cccc(F)c1
2,2.02,O=C(O)COc1ccccc1Cl
3,1.5,O=C(O)Cc1ccccc1F
4,1.22,O=C(O)COc1ccccc1[N+](=O)[O-]
5,1.95,Cc1cccc(CC(=O)O)c1
6,1.14,O=C(O)Cc1cccc(C(=O)O)c1
7,1.18,N#Cc1cccc(CC(=O)O)c1
8,1.5,COc1cccc(CC(=O)O)c1
9,2.62,O=C(O)Cc1cccc(C(F)(F)F)c1
10,2.1,O=C(O)COc1ccccc1Br
